Measurements as given in patent publication EP0837881B1, “CONJUGATES OF alpha-MSH WITH A FATTY ACID, PREPARATION METHOD THEREFOR, AND USE THEREOF AS A DRUG” (INSTITUT EUROPEEN DE BIOLOGIE CELLULAIRE, priority 1995, dated 2004).
Several values for one entry are separate records, joined by “and”; a condition that tells them apart may be missing. Identical values can stand only once. Numbered stars: 1 amine (or outer) side, 2 acyl side, 3 side chain; on linkers, the order of the positions; unused ones are H or OH. Square brackets hold non-standard residues; d marks the D form. Peptide text beside a SMILES is read from it. Adipoyl = O=C(CCCCC(=O)[*:2])[*:1]; d(hPhe) = N[C@H](CCc1ccccc1)C(=O)O; hLeu = CC(C)CC[C@H](N)C(=O)O

Legend:
souris = experiment: Comparative DNFB contact hypersensitivity test, conjugate versus its peptide alone (Example 9); format: in vivo
Source text: La méthode utilisée est celle décrite précédemment dans l'exemple N° 4, hypersensibilité de contact induite chez la souris par la D N F B. • Produits étudiés Lot I : [formula] - Conjugué 1 représenté par le composé P3. Lot II : Me.Nle - Glu - His - D-homo-Phé - Arg - Trp - Gly - NH2 Lot T : Témoin = Acide trans-10-hydroxy-2-décénoïque.
Solvant : le propylène glycol précédemment employé comme témoin dans l'exemple 6.
Une mesure de l'activité du témoin sera effectuée pour chaque expérimentation. - Expérimentation et posologie
Témoin: 10 ng d' acide trans-10-hydroxy-2-décénoïque par souris et par jour.
Au cinquième jour, trente minutes après la dernière application toutes les souris sont sensibilisées avec 25 µl de D N F B (2.4-dinitro-1-fluorobenzène (FLUKA CHEMIKA PURUM à 97 % lot N° 33820890)) à 2 % dans un mélange 4 pour 1 d'acétone (SDS réf. 05510) et de trioléine (FLUKA) appliqué par voie topique sur la région dorsale de peau rasée. Au sixième jour, on procède à une nouvelle sensibilisation par application de D N F B. Au onzième jour, l'épaisseur des oreilles des souris, est mesurée à l'aide d'un micromètre (ROCH 0 à 25 mm au 1/100 mm) afin d'obtenir des valeurs de base, puis les oreilles sont stimulées par application topique de 20 µl de D N F B à 0,8 %. Au douzième jour, l'épaisseur des oreilles est à nouveau mesurée. On établit la valeur moyenne de l'épaississement des oreilles pour les souris des lots qui ont reçu les produits à étudier, ainsi que pour les souris du lot témoin.Le pourcentage de suppression éventuelle sera exprimé par la même équation que dans l'exemple 6.

PGE2 = experiment: Inhibition of PGE2 production by IL1-stimulated MRC5 fibroblasts, RIA (Example 7); format: cell-based, humaine
Source text: Mise en évidence de l'effet inhibiteur des conjugués 1 et 5 (composés P1 et P2) sur la production par des fibroblastes stimulés par l'IL 1, d'un métabolite de l'acide arachidonique, la PGE2.
Nous avons choisi d'utiliser la souche ATCC MRC5 entretenue au laboratoire de façon continue et déjà testée par Cannon et al. (J. Immunol., 1986). Après un repiquage, les fibroblastes sont cultivés dans des micropuits (plaque de 24 puits de 2 cm^2, Falcon). L'innoculum est de 30 000 cellules par puits; le milieu nutritif utilisé est composé de RPMI 1640 (90 %) et de sérum de veau foetal décomplémenté (SVF, 10 %). Le milieu est changé tous les deux jours jusqu'à confluence des cellules.
Les couches monocellulaires ainsi obtenues sont lavées puis préincubées pendant 24 heures dans du milieu frais ne contenant que 1 % de SVF. […] Après 20 minutes d'incubation en présence de ces composés, l'ILI recombinante humaine (Tebu, France) à la concentration de 5, 2,5 ou 0,5 ng/ml de milieu est mise en contact avec des cellules pendant 18 heures. A la fin de cette incubation les surnageants sont prélevés et congelés à - 80 ° C jusqu'à l'analyse. Les couches monocellulaires sont fixées au méthanol.
Le dosage RIA est effectué selon la méthode décrite par Dray et al. (Europ. J. Invest. 1975). 3 séries d'expériences en duplicate ont été réalisées pour chaque concentration de produit étudié et pour les contrôles. Les résultats sont exprimés en pg/µg d'ADN. L'effet inhibiteur est exprimé en pourcentage par rapport aux contrôles.
Afin d'éviter toute erreur possible due au comptage en microscopie optique, l'ADN a été dosé par méthode fluorimétrique selon le protocole décrit par Brunk et al. (Analytical Biochem., 1979).

[1] = tested on: souris femelles C57 BL/6JICO; experiment: Contact hypersensitivity test to dinitrofluorobenzene (DNFB), anti-allergic activity, topical application (Example 6); format: in vivo; conditions: for % Augment. O. Gauche / % Augment. O. Droite: increase of ear thickness; for % Augment. O. Gauche / % Suppress. O. Gauche: left ear; for % Augment. O. Droite / % Suppress. O. Droite: right ear; for % Suppress. O. Gauche / % Suppress. O. Droite: suppression versus control lot
Source text: Des souris femelles C57 BL/6JICO, âgées de 5 semaines sont réparties en dix lots de dix animaux (cinq par cage), avec libre accès à l'eau et à la nourriture, soumises à une photopériode de douze heures de lumière par vingt-quatre heures.
Les animaux des lots 1 à 6 reçoivent quotidiennement et par application topique sur la peau rasée du dos, les produits à étudier (conjugués 1 et 5 représentés par les composés P1 et P2 préparés selon les exemples 1 et 2), mis en solution dans du propylène glycol, sous un volume constant de 50 µl et cela pendant cinq jours consécutifs.
• Composé P1 - Lots 1, 2 et 3 - 2,5 µg, 0,5 µg et 0,1 µg /souris/jour respectivement. • Composé P2 - Lots 4, 5 et 6 - 2,5 µg, 0,5 µg et 0.1 µg /souris/jour respectivement.
Les animaux du lot 10 servent de témoins (ils reçoivent seulement, 50 µl de propylène glycol par application topique pendant cinq jours).
Au cinquième jour, trente minutes après la dernière application toutes les souris sont sensibilisées avec 25 µl de D N F B (2,4-dinitro-1-fluorobenzène (FLUKA CHEMIKA PURUM à 97 % lot n° 33820890)) à 2 % dans un mélange 4 pour 1 d'acétone (SDS réf 0510) et de trioléine (FLUKA) appliqué par voie topique sur la région dorsale de peau rasée.
Au sixième jour, on procède à une nouvelle sensibilisation par application de D N F B.
Au onzième jour, l'épaisseur des oreilles des souris, est mesurée à l'aide d'un micromètre (ROCH 0 à 25 mm au 1/100 mm) afin d'obtenir des valeurs de base, puis les oreilles sont stimulées par application topique de 20 µl de DNFB à 0,8 %.
Au douzième jour, l'épaisseur des oreilles est à nouveau mesurée. On établit la valeur moyenne de l'épaississement des oreilles pour les souris des lots qui ont reçu les produits à étudier, ainsi que pour les souris du lot témoin.
Le pourcentage de suppression éventuelle sera exprimé par le calcul suivant : (T-E)/(T)x100 [formula] avec T pour le pourcentage d'augmentation de l'épaisseur moyenne des oreilles du lot témoin et E pour celui des lots qui ont reçu les produits à étudier.

[2] = 0,1 µg/souris/jour topical for 5 days in propylene glycol
[3] = 0,1 µg/souris/jour topical for 5 days
[4] = 0,5 µg/souris/jour topical for 5 days in propylene glycol
[5] = 0,5 µg/souris/jour topical for 5 days
[6] = 2,5 µg/souris/jour topical for 5 days in propylene glycol
[7] = 2,5 µg/souris/jour topical for 5 days

O=C(O)/C=C/CCCCCCCO [Lot T, Acide trans-10-hydroxy-2-décénoïque]
% Augment. O. Gauche (souris; 0,01 µg/souris/jour (10 ng) topical in propylene glycol, control substance, one measurement per experiment, left ear): 55,80% and 57,10% | % Augment. O. Droite (souris; 0,01 µg/souris/jour (10 ng) topical in propylene glycol, control substance, one measurement per experiment, right ear): 56,00% and 57,50% | effet suppressif de l'hypersensibilité cutanée (souris; in solution in propylene glycol, 10 ng per mouse per day): pas d'effet suppressif

CC(C)CC[C@H](N)C(=O)N[C@@H](CCC(=O)O)C(=O)N[C@@H](Cc1c[nH]cn1)C(=O)N[C@H](CCc1ccccc1)C(=O)N[C@@H](CCCNC(=N)N)C(=O)N[C@@H](Cc1c[nH]c2ccccc12)C(=O)NCC(N)=O [Lot II, Me.Nle - Glu - His - D-homo-Phé - Arg - Trp - Gly - NH2] (H-[hLeu]EH[d(hPhe)]RWG-NH2)
suppression de l'hypersensibilité cutanée (souris; 0,1 µg/souris/jour): 47% | suppression de l'hypersensibilité cutanée (souris; 0,5 µg/souris/jour): ~60% | suppression de l'hypersensibilité cutanée (souris; 2,5 µg/souris/jour): ~69%

CC(C)CC[C@H](NC(=O)CCCCC(=O)O)C(=O)N[C@@H](CCC(=O)O)C(=O)N[C@@H](Cc1c[nH]cn1)C(=O)N[C@H](CCc1ccccc1)C(=O)N[C@@H](CCCNC(=N)N)C(=O)N[C@@H](Cc1c[nH]c2ccccc12)C(=O)NCC(N)=O [Conjugué 1, Adipoyl - Me.Nle - Glu - His - D-homo-Phé - Arg - Trp - Gly - NH2] (Adipoyl-[hLeu]EH[d(hPhe)]RWG-NH2)
% inhib. (PGE2; IL1 0,5 ng, conjugate 10^-4 M): 60% | PGE2 (PGE2; IL1 0,5 ng, conjugate 10^-4 M): 113 ± 25 pg/mg d'ADN | % inhib. (PGE2; IL1 0,5 ng, conjugate 10^-5 M): 38% | PGE2 (PGE2; IL1 0,5 ng, conjugate 10^-5 M): 176 ± 37 pg/mg d'ADN | % inhib. (PGE2; IL1 0,5 ng, conjugate 10^-6 M): 19% | PGE2 (PGE2; IL1 0,5 ng, conjugate 10^-6 M): 231 ± 55 pg/mg d'ADN | % inhib. (PGE2; IL1 0,5 ng, conjugate 10^-7 M): 13% | PGE2 (PGE2; IL1 0,5 ng, conjugate 10^-7 M): 249 ± 60 pg/mg d'ADN | % inhib. (PGE2; IL1 0,5 ng, conjugate 10^-8 M): 10% | PGE2 (PGE2; IL1 0,5 ng, conjugate 10^-8 M): 258 ± 35 pg/mg d'ADN | PGE2 (PGE2; IL1 0,5 ng, conjugate 10^-9 M): 364 ± 56 pg/mg d'ADN | % inhib. (PGE2; IL1 2,5 ng, conjugate 10^-4 M): 53% | PGE2 (PGE2; IL1 2,5 ng, conjugate 10^-4 M): 179 ± 50 pg/mg d'ADN | % inhib. (PGE2; IL1 2,5 ng, conjugate 10^-5 M): 40% | PGE2 (PGE2; IL1 2,5 ng, conjugate 10^-5 M): 232 ± 45 pg/mg d'ADN | % inhib. (PGE2; IL1 2,5 ng, conjugate 10^-6 M): 24% | PGE2 (PGE2; IL1 2,5 ng, conjugate 10^-6 M): 292 ± 68 pg/mg d'ADN | % inhib. (PGE2; IL1 2,5 ng, conjugate 10^-7 M): 6% | PGE2 (PGE2; IL1 2,5 ng, conjugate 10^-7 M): 364 ± 68 pg/mg d'ADN | % inhib. (PGE2; IL1 2,5 ng, conjugate 10^-8 M): 13% | PGE2 (PGE2; IL1 2,5 ng, conjugate 10^-8 M): 335 ± 50 pg/mg d'ADN | % inhib. (PGE2; IL1 2,5 ng, conjugate 10^-9 M): 17% | PGE2 (PGE2; IL1 2,5 ng, conjugate 10^-9 M): 320 ± 43 pg/mg d'ADN | action inhibitrice (PGE2; Table 2, dose-effect relation, independent of IL1 concentration): bonne action inhibitrice | action à partir de 10^-7 M (PGE2; conjugate 10^-7 M and lower, at both IL1 concentrations (2,5 and 0,5 ng)): pas d'action | pouvoir inhibiteur de l'action de l'IL1 et de la PGE2 (PGE2; summary of Tables 2 and 3): possèdent un pouvoir inhibiteur | % Augment. O. Gauche [1, 2]: 21,50% | % Augment. O. Droite [1, 2]: 22,00% | % Suppress. O. Gauche [1, 3]: 62,93% | % Suppress. O. Droite [1, 3]: 62,39% | % Augment. O. Gauche [1, 4]: 19,00% | % Augment. O. Droite [1, 4]: 19,50% | % Suppress. O. Gauche [1, 5]: 67,24% | % Suppress. O. Droite [1, 5]: 66,66% | % Augment. O. Gauche [1, 6]: 17,50% | % Augment. O. Droite [1, 6]: 17,80% | % Suppress. O. Gauche [1, 7]: 69,80% | % Suppress. O. Droite [1, 7]: 69,57% | suppression de la réaction d'hypersensibilité cutanée induite par administration de D N F. B ([1]; matches the 2,5 µg/souris/jour lots of Table 1): ~69%
